{"source": "paper PMC2879362", "about": "“Design of Group IIA Secreted/Synovial Phospholipase A2 Inhibitors: An Oxadiazolone Derivative Suppresses Chondrocyte Prostaglandin E2 Secretion” (PLoS ONE, 2010)", "key": {"[1]": {"molecular_target": "T1, human GIIAPLA2 (hGIIAPLA2) (Homo sapiens, UniProt P14555)", "T1 construct": "hGIIAPLA2 was prepared as previously described [33]; made in house", "T1 sequence (P14555 21-144)": "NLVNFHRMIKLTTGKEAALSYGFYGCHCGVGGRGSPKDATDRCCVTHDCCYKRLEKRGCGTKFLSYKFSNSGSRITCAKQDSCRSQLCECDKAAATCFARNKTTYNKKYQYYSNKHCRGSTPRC", "assay": "In vitro fluorimetric PLA2 assay (β-py-C10-PG substrate)", "assay_type": "biochemical", "details": "2 µM β-py-C10-PG, 1 ng/mL hGIIAPLA2", "method": "(§1) The compounds C1-C8 were submitted to fluorimetric assay to determine their inhibitory potencies and selectivity towards human GIIAPLA2 (hGIIAPLA2) versus porcine group IB PLA2 (pGIBPLA2) (Table 2). GIBPLA2 is an enzyme of the same family as GIIAPLA2 (sPLA2) but is mainly involved in digestion of dietary phospholipids and is secreted by the pancreas. Lipophilicity parameters, log P, of these products are calculated by use of Rekker's fragmental data (Table 2). The molecules C1-C8 are specific inhibitors of hGIIAPLA2 because none inhibited pGIBPLA2 at the highest concentration tested (100 µM). Such selectivity implies that C1-C8 should not interfere with the digestion process.\n(§2) Fatty-acid free BSA and pancreatic PLA2 were from Sigma. hGIIAPLA2 was prepared as previously described. The fluorescent substrate for PLA2 assay, 1-hexadecanoyl-2-(10-pyrenedecanoyl)-sn-glycero-3-phosphoglycerol, ammonium salt (β-py-C10-PG) was from Molecular Probes (Eugene). PLA2 activity was evaluated as previously described with β-py-C10-PG used as a substrate (2 µM final concentration). In a total volume of 1 mL, the standard reaction medium contained 50 mM Tris-HCl (pH 7.5), 500 mM NaCl, 1 mM EGTA, 2 µM β-py-C10-PG, 0.1% fatty-acid free BSA and 6 ng/mL pancreatic PLA2 or 1 ng/mL hGIIAPLA2. The fluorescence (λex = 342 nm and λem = 398 nm) of the enzymatic reaction medium was recorded for 3 min with use of a spectrofluorimeter LS 50 (Perkin-Elmer) equipped with a Xenon lamp. The reaction was initiated by the addition of CaCl2 (10 mM, final concentration). The increase in fluorescence was continuously recorded for 1 min, and PLA2 activity was calculated as previously described. When used, the inhibitor was added to the reaction medium after introduction of BSA. The activity is expressed in micromoles of fluorescent β-py-C10-PG hydrolyzed per min. The standard error of the mean of three independent experiments was less than 10%, which allows for the determination of the IC50 values (concentration of inhibitors producing 50% inhibition) of each compound."}, "[2]": {"molecular_target": "T2, porcine group IB PLA2 (pGIBPLA2) (Sus scrofa, UniProt P00592)", "T2 construct": "purchased Sigma", "T2 sequence (P00592 23-146)": "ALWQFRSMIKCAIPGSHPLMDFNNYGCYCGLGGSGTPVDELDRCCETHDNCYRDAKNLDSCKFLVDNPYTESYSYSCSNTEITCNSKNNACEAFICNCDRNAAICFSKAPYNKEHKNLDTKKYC", "assay": "In vitro fluorimetric PLA2 assay (β-py-C10-PG substrate)", "assay_type": "biochemical", "details": "2 µM β-py-C10-PG, 6 ng/mL pancreatic PLA2", "method": "as §1, §2"}, "[3]": {"test_system": "IL-1β-stimulated NO secretion in articular chondrocytes", "assay": "IL-1β-stimulated NO (nitrite) secretion in articular chondrocytes (Griess)", "assay_type": "cell-based, rabbit", "method": "We tested the effect of C8 on the IL-1β-stimulated secretion of NO in chondrocytes. NO is a mediator of immune and inflammatory responses. In vitro, IL-1β induces the expression of inducible NO synthase (iNOS) by chondrocytes, and consequently an increase in NO production. NO secretion, evaluated by nitrite concentration in the cell culture medium, represents a reliable IL-1β-dependent and PLA2-independent inflammatory marker in our cell model. Chondrocytes were treated for 20 h with IL-1β alone or 1 h after the addition of C8.\nArticular chondrocytes were isolated from 5-week-old Fauve de Bourgogne female rabbits (CPA, Orleans, France) and cultured at the first passage in conditions avoiding cell dedifferentiation as previously described. Cells were cultured at 37°C in 12-well plates in Ham's F-12 medium containing 10% FCS, 20 IU/mL penicillin, and 20 µg/mL streptomycin (all from Invitrogen) until nearly confluent. Then medium was replaced with DMEM (Invitrogen) containing 20 IU/mL penicillin, and 20 µg/mL streptomycin and, if necessary, 0.1% fatty acid free BSA (Sigma) or 2% FCS. At this time the C8 compound dissolved in DMSO (Sigma) was added to the medium (the amount of DMSO was kept at 1‰ (v/v) in all the wells). 1 h after the addition of C8, IL-1β (PeproTech) was added to the medium. Consequently, chondrocytes were incubated for 20 h with IL-1β and for 21 h with C8.\n20 h after the addition of IL-1β to the chondrocytes, culture media were collected, and aliquots were stored at −80°C until PGE2 and nitrite quantification. PGE2 concentration in culture media was determined by use of an enzyme immunoassay (EIA) kit (PGE2 EIA Kit-monoclonal; Cayman Chemical). Nitrite concentration was determined by a spectrophotometry method based on the Griess reaction. Briefly, 200 µL of culture medium or sodium nitrite (NaNO2, Merck) standard dilutions were mixed with 100 µL Griess reagent [0.5% (w/v) sulphanilic acid (Merck), 0.05% (w/v) N(1-naphtyl)ethylenediamine (Merck), 30% (v/v) acetic acid, 1.5 N HCl] and incubated for 10 min at 50°C. The absorbance was measured at 540 nm."}}, "data": [{"smiles": "O=c1[nH]c(Cc2ccc(OCCCCCOc3cc4ccccc4c4ccccc34)cc2)no1", "note": "[C8]", "values": [{"measurement": "IC50", "setting": "[1]", "result": "620 ± 150", "unit": "nM"}, {"measurement": "IC50", "setting": "[2]", "result": "> 100000", "unit": "nM"}, {"measurement": "inhibition of IL-1β-stimulated nitrite secretion", "setting": "[3]; DMEM + 0.1% BSA, IL-1β 20 h", "result": "did not significantly inhibit"}, {"measurement": "decrease of IL-1β-induced nitrite production", "setting": "[3]; DMEM + 2% FCS, C8 1.24 µM", "result": 17, "unit": "%"}, {"measurement": "decrease of IL-1β-induced nitrite production", "setting": "[3]; DMEM + 2% FCS, C8 2.48 µM", "result": 19, "unit": "%"}, {"measurement": "decrease of IL-1β-induced nitrite production", "setting": "[3]; DMEM + 2% FCS, C8 4.96 µM", "result": 21, "unit": "%"}, {"measurement": "inhibition of IL-1β-stimulated nitrite secretion", "setting": "[3]; DMEM + 2% FCS, C8 at 0.31, 0.62 and 0.94 µM", "result": "did not inhibit"}, {"measurement": "inhibition of IL-1β-stimulated nitrite secretion", "setting": "[3]; DMEM medium alone, IL-1β 20 h", "result": "did not significantly inhibit"}]}]}
